From patent US7425548B2, “Materials and methods for immune system stimulation” (Variety Chidren's Hospital, priority 2004, dated 2008)

Experiments:
[1] = test system: human leukemic cells (CEM); experiment: Cytotoxicity of RR1 treated lymphocytes (functional assay, active caspase-3); assay type: cell-based; details: RR1 0-100 μg/ml, 24 hours, then co-incubation with CEM
Procedure: Normal lymphocytes were treated with RR1 (0-100 μg/ml) for 24 hours in RPMI medium. The cells were washed and co-incubated with PKH26-labeled human leukemic CEM cells for 12 hours for the active NK cells to lyse the tumor cells. The cell mixtures were stained with FITC-labeled and activated caspase-3 monoclonal antibody. The percentage of PKH26+ and Caspase-3+ cells were quantified by analyzing in a Beckman-Coulter Elite flow cytometer (**p=0.01).
Cytotoxicity of RR1 treated lymphocytes. To evaluate the enhanced cytotoxicity of activated lymphocytes, a functional assay was adopted using RR1-activated lymphocytes as effecter cells and human leukemic cells (CEM) as targets (Liu, L. et al. Nat. Med., 2002, 8:185-189; Jerome, K. R. et al. Nat. Med., 2003, 9:4-5). Briefly, normal lymphocytes (10^6/ml) were treated with different concentrations of RR1 in RPMI medium for 24 hours in a CO2 incubator at 37° C. […] The percentage of cells killed by the activated NK cells was determined by fixing the mixture with 1 ml of 2% paraformaldehyde solution for 30 minutes on ice followed by suspending in 0.5% Tween 20 in PBS. The cell mixture was stained with 7.5 μl of anti-active caspase-3-FITC antibody (BD Biosciences, CA) for 30 minutes at room temperature, washed with PBS and analyzed in a Coulter Elite Flow Cytometer.

normal lymphocytes = experiment: Nitric oxide (NO) synthesis, Griess assay; assay type: cell-based, human; details: RR1 0-100 μg/ml, 24 hours
Procedure: Normal lymphocytes from healthy volunteers were treated with RR1 (0-100 μg) at 37° C. for 24 in a CO2 incubator in MEM medium. The supernatant medium was analyzed for the production of NO using assay kit from Active Motif, Carlsbad, Calif. and data analyzed using ANOVA (p=0.109).
The NO quantification was assayed by Nitric Oxide quantification kit (ACTIVE MOTIF, Carlsbad, Calif.) as per the manufacturer's protocol. Briefly, lymphocytes (10^6/ml) were incubated with varying concentrations of RR1 (0-100 μg/ml) for 24 hours in a nitrate free medium (DULBECO Minimum Essential Medium) at 37° C. The cell culture supernatant (70 μl) was pipetted into the wells of a 96-well plate along with 20 μl reconstituted co-factor and 10 μl nitrate reductase enzyme solution. The plate was shaken at 150 rpm on a plate shaker for 30 minutes at room temperature. Griess reagents A and B (50 μl each) were added into each well, allowed the color to develop for 20 minutes and the absorbance was taken at 540 nm with a reference wavelength of 620 nm in the BIO-RAD plate reader.

RAW 264.7 cells = experiment: RR1-induced TNF-α synthesis with and without CAPE, ELISA; assay type: cell-based, mouse; details: RAW 264.7, RR1 0-1000 μg/ml
Procedure: The cells were pre-incubated with 10 μg/ml CAPE for 1 hour in 0.5% FBS containing DMEM medium and replaced with medium containing RR1 at varying concentrations for 4 hour at 37° C. The medium was analyzed for secreted TNF-α using ELISA protocol.
RR1-induced TNF-α synthesis. RAW 264.7 cells (0.5×10^6/ml) were plated on 6-well plates with DMEM medium containing 0.5% FBS (starvation). Once the cells were attached, medium was replaced, RR1 was added at 0, 100, 500 and 1000 μg/ml doses and incubated at 37° C. for 24 hours. The medium was analyzed for the secreted TNF-α using the ELISA kit (BD BIOSCIENCES kit, San Jose, Calif.) based on the manufacturer's protocol.
To determine the effect of NF-κB inhibitor CAPE on TNF-α synthesis, RAW 264.7 cells were treated with 10 μg/ml of CAPE for 1 hour at 37° C. followed by treatment with RR1 (0-1000 μg/ml) overnight in the incubator. The secreted TNF-α in the medium was analyzed using ELISA (BD BIOSCIENCES, San Jose, Calif.).

[2] = test system: HEK293 cells transfected with TLR2; experiment: TLR signaling, IL-8 ELISA; assay type: cell-based, human; details: HEK/TLR2, 24 hours
Procedure: (§1) TLR signaling. To determine the involvement of TLR signaling, parental HEK293 as well as HEK293 cells transfected with human TLR2, TLR6, TLR2/6 or TLR4/CD14/MD2 genes (cloned into pDUO plasmid), were used. These cells (0.5×10^6/ml) were incubated with 0-100 μg/ml of RR1 for 24 hours. Since these cells produce very low level of TNF-α and detectable levels of IL-8 upon activation, IL-8 secreted into the medium was analyzed using ELISA procedure. Incidentally, the IL-8 synthesis is also under the control of the transcription factor NF-κB.

[3] = test system: HEK293 cells transfected with TLR4/CD14/MD2; experiment: TLR signaling, IL-8 ELISA; assay type: cell-based, human; details: HEK/TLR4/CD14/MD2, 24 hours
Procedure: as §1

parental HEK293 cells = experiment: TLR signaling, IL-8 ELISA; assay type: cell-based, human; details: parental HEK, RR1 0-100 μg/ml, 24 hours
Procedure: as §1

(1,4)-α-D-glucan [RR1]
killing of tumor cells by RR1-treated normal lymphocytes [1]: dose-dependent enhancement of cytotoxicity
increase in NO (normal lymphocytes): ≤ 21%
synthesis of TNF-α (RAW 264.7 cells): dose-dependent increase
IL-8 production [2]: did not induce IL-8 production
IL-8 production [3]: did not induce IL-8 production
IL-8 production (parental HEK293 cells): did not induce IL-8 production
